Measured values as given in paper PMC5404560, “Towards Selective Mycobacterial ClpP1P2 Inhibitors with Reduced Activity against the Human Proteasome” (Antimicrobial Agents and Chemotherapy, 2017).
Counter-ions that a name gives are not always drawn. Values belong to the compound of their own block, whether it stands above or below them. Residues, ends and D or L forms follow the SMILES beside them.

Assays:
Calpain 1 = molecular target: T1, Calpain 1 (Homo sapiens, UniProt P07384); test: Protease panel: Calpain 1; format: biochemical; settings: supplement panel table, test and control compound
T1 construct: Reaction Biology Corporation (contract testing)

Cathepsin B = molecular target: T2, Cathepsin B (Homo sapiens, UniProt P07858); test: Protease panel: Cathepsin B; format: biochemical; settings: supplement panel table, test and control compound
T2 construct: Reaction Biology Corporation (contract testing)

Cathepsin C = molecular target: T3, Cathepsin C (Homo sapiens, UniProt P53634); test: Protease panel: Cathepsin C; format: biochemical; settings: supplement panel table, test and control compound
T3 construct: Reaction Biology Corporation (contract testing)

Cathepsin H = Cathepsin H (Homo sapiens, UniProt P09668); test: Protease panel: Cathepsin H; format: biochemical; settings: supplement panel table, test and control compound
Cathepsin L = Cathepsin L (Homo sapiens, UniProt P07711); test: Protease panel: Cathepsin L; format: biochemical; settings: supplement panel table, test and control compound
Cathepsin S = Cathepsin S (Homo sapiens, UniProt P25774); test: Protease panel: Cathepsin S; format: biochemical; settings: supplement panel table, test and control compound
Cathepsin V = Cathepsin V (Homo sapiens, UniProt O60911); test: Protease panel: Cathepsin V; format: biochemical; settings: supplement panel table, test and control compound
Papain = molecular target: T4, Papain (Carica papaya, UniProt P00784); test: Protease panel: Papain; format: biochemical; settings: supplement panel table, test and control compound
T4 construct: Reaction Biology Corporation (contract testing)

Caspase 7 = molecular target: T5, Caspase 7 (Homo sapiens, UniProt P55210); test: Protease panel: Caspase 7; format: biochemical; settings: supplement panel table, test and control compound
T5 construct: Reaction Biology Corporation (contract testing)

ADAM10 = molecular target: T6, ADAM10 (Homo sapiens, UniProt O14672); test: Protease panel: ADAM10; format: biochemical; settings: supplement panel table, test and control compound
T6 construct: Reaction Biology Corporation (contract testing)

MMP 3 = MMP 3 (Homo sapiens, UniProt P08254); test: Protease panel: MMP 3; format: biochemical; settings: supplement panel table, test and control compound
Method: (§1) Protease panel testing was carried out by Reaction Biology Corporation.

MMP 7 = MMP 7 (Homo sapiens, UniProt P09237); test: Protease panel: MMP 7; format: biochemical; settings: supplement panel table, test and control compound
Method: as §1

MMP 12 = molecular target: T7, MMP 12 (Homo sapiens, UniProt P39900); test: Protease panel: MMP 12; format: biochemical; settings: supplement panel table, test and control compound
T7 construct: Reaction Biology Corporation (contract testing)
Method: as §1

MMP 14 = MMP 14 (Homo sapiens, UniProt P50281); test: Protease panel: MMP 14; format: biochemical; settings: supplement panel table, test and control compound
Method: as §1

MMP 13 = MMP 13 (Homo sapiens, UniProt P45452); test: biochemical
TACE = TACE (Homo sapiens, UniProt P78536); test: biochemical
Elastase = test: Protease panel: Elastase; format: biochemical; settings: supplement panel table, test and control compound
FXa = molecular target: T8, FXa (Homo sapiens, UniProt P00742); test: Protease panel: FXa; format: biochemical; settings: supplement panel table, test and control compound
T8 construct: FXa serine peptidase

Kallikrein 5 = Kallikrein 5 (Homo sapiens, UniProt Q9Y337); test: Protease panel: Kallikrein 5; format: biochemical; settings: supplement panel table, test and control compound
Kallikrein 7 = Kallikrein 7 (Homo sapiens, UniProt P49862); test: Protease panel: Kallikrein 7; format: biochemical; settings: supplement panel table, test and control compound
Kallikrein 12 = Kallikrein 12 (Homo sapiens, UniProt Q9UKR0); test: Protease panel: Kallikrein 12; format: biochemical; settings: supplement panel table, test and control compound
Kallikrein 13 = Kallikrein 13 (Homo sapiens, UniProt Q9UKR3); test: Protease panel: Kallikrein 13; format: biochemical; settings: supplement panel table, test and control compound
Kallikrein 14 = Kallikrein 14 (Homo sapiens, UniProt Q9P0G3); test: Protease panel: Kallikrein 14; format: biochemical; settings: supplement panel table, test and control compound
Matriptase 2 = Matriptase 2 (Homo sapiens, UniProt Q8IU80); test: Protease panel: Matriptase 2; format: biochemical; settings: supplement panel table, test and control compound
Plasma kallikrein = molecular target: T9, Plasma kallikrein (Homo sapiens, UniProt P03952); test: Protease panel: Plasma kallikrein; format: biochemical; settings: supplement panel table, test and control compound
T9 construct: Reaction Biology Corporation (contract testing)

Plasmin = molecular target: T10, Plasmin (Homo sapiens, UniProt P00747); test: Protease panel: Plasmin; format: biochemical; settings: supplement panel table, test and control compound
T10 construct: Reaction Biology Corporation (contract testing)

Thrombin a = molecular target: T11, Thrombin a (Homo sapiens, UniProt P00734); test: Protease panel: Thrombin a; format: biochemical; settings: supplement panel table, test and control compound
T11 construct: Reaction Biology Corporation (contract testing)

Trypsin = test: Protease panel: Trypsin; format: biochemical; settings: supplement panel table, test and control compound
Tryptase b2 = molecular target: T12, Tryptase b2 (Homo sapiens, UniProt P20231); test: Protease panel: Tryptase b2; format: biochemical; settings: supplement panel table, test and control compound
T12 construct: Reaction Biology Corporation (contract testing)

Tryptase g1 = molecular target: T13, Tryptase g1 (Homo sapiens, UniProt Q9NRR2); test: Protease panel: Tryptase g1; format: biochemical; settings: supplement panel table, test and control compound
T13 construct: Reaction Biology Corporation (contract testing)

Urokinase = molecular target: T14, Urokinase (Homo sapiens, UniProt P00749); test: Protease panel: Urokinase; format: biochemical; settings: supplement panel table, test and control compound
T14 construct: Reaction Biology Corporation (contract testing)

Caspase 1 = molecular target: T15, Caspase 1 (Homo sapiens, UniProt P29466); test: Protease panel: Caspase 1; format: biochemical; settings: supplement panel table, test and control compound
T15 construct: Reaction Biology Corporation (contract testing)

Caspase 2 = molecular target: T16, Caspase 2 (Homo sapiens, UniProt P42575); test: Protease panel: Caspase 2; format: biochemical; settings: supplement panel table, test and control compound
T16 construct: Reaction Biology Corporation (contract testing)

Caspase 4 = molecular target: T17, Caspase 4 (Homo sapiens, UniProt P49662); test: Protease panel: Caspase 4; format: biochemical; settings: supplement panel table, test and control compound
T17 construct: Reaction Biology Corporation (contract testing)

Caspase 5 = molecular target: T18, Caspase 5 (Homo sapiens, UniProt P51878); test: Protease panel: Caspase 5; format: biochemical; settings: supplement panel table, test and control compound
T18 construct: Reaction Biology Corporation (contract testing)

Caspase 8 = molecular target: T19, Caspase 8 (Homo sapiens, UniProt Q14790); test: Protease panel: Caspase 8; format: biochemical; settings: supplement panel table, test and control compound
T19 construct: Reaction Biology Corporation (contract testing)

Caspase 9 = molecular target: T20, Caspase 9 (Homo sapiens, UniProt P55211); test: Protease panel: Caspase 9; format: biochemical; settings: supplement panel table, test and control compound
T20 construct: Reaction Biology Corporation (contract testing)

Caspase 10 = molecular target: T21, Caspase 10 (Homo sapiens, UniProt Q92851); test: Protease panel: Caspase 10; format: biochemical; settings: supplement panel table, test and control compound
T21 construct: Reaction Biology Corporation (contract testing)

Caspase 11 = molecular target: T22, Caspase 11 (Mus musculus, UniProt P70343); test: Protease panel: Caspase 11; format: biochemical; settings: supplement panel table, test and control compound
T22 construct: Reaction Biology Corporation (contract testing)

Kallikrein 1 = Kallikrein 1 (Homo sapiens, UniProt P06870); test: Protease panel: Kallikrein 1; format: biochemical; settings: supplement panel table, test and control compound
Neprilysin = molecular target: T23, Neprilysin (Homo sapiens, UniProt P08473); test: Protease panel: Neprilysin; format: biochemical; settings: supplement panel table, test and control compound
T23 construct: Reaction Biology Corporation (contract testing)
Method: as §1

Kallikrein 5, sequence (Q9Y337 23-293, species assumed): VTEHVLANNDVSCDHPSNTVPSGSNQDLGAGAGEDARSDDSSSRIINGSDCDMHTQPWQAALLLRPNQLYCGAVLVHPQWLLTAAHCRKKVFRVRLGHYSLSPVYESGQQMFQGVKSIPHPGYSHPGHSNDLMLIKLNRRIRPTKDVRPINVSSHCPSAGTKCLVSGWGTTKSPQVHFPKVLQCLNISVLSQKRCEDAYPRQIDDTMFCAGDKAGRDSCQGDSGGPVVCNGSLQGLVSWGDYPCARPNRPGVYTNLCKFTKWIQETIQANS
T16 sequence (P42575 whole entry, species assumed): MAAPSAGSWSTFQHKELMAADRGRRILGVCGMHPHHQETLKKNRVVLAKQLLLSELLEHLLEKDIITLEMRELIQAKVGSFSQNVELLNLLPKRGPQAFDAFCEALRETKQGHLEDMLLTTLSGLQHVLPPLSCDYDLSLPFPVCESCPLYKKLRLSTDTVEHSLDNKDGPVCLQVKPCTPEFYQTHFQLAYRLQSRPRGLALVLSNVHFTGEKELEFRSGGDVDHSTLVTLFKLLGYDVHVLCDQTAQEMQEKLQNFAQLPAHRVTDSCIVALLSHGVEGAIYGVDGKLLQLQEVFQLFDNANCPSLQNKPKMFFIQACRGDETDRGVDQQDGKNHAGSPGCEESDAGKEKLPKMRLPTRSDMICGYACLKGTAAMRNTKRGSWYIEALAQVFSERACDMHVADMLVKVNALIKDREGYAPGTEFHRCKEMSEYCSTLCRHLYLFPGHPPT
T21 sequence (Q92851 220-521, species assumed): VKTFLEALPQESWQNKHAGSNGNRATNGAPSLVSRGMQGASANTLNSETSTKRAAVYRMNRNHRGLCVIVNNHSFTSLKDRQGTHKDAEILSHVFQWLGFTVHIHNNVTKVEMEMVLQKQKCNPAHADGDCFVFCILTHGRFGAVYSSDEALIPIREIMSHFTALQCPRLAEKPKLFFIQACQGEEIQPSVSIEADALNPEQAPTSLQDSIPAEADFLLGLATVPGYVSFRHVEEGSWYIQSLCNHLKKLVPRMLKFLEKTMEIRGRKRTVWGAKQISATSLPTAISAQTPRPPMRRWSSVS
Kallikrein 12, sequence (Q9UKR0 18-248, species assumed): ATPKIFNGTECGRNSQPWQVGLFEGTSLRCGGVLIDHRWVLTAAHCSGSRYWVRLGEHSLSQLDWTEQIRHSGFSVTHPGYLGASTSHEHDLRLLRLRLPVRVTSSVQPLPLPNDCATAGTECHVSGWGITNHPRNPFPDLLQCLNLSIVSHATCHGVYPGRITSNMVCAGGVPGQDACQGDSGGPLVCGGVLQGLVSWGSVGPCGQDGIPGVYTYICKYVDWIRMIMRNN
TACE, sequence (P78536 215-824): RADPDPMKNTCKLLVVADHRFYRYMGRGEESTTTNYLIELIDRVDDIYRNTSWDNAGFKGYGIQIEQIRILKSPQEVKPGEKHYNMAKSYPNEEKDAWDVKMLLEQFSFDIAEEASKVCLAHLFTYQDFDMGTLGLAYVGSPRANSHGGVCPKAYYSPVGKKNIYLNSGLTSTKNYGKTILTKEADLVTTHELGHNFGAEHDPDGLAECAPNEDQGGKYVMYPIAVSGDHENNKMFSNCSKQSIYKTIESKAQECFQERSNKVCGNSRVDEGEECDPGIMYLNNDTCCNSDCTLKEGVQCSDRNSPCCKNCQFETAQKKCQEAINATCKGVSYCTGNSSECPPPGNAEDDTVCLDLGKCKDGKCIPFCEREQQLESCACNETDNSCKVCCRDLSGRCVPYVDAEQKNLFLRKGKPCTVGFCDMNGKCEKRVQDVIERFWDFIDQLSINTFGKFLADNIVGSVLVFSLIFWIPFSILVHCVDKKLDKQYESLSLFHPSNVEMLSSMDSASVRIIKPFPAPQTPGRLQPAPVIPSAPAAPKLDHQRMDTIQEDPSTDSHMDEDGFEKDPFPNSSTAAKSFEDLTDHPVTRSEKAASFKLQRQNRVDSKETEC
T1 sequence (P07384 whole entry): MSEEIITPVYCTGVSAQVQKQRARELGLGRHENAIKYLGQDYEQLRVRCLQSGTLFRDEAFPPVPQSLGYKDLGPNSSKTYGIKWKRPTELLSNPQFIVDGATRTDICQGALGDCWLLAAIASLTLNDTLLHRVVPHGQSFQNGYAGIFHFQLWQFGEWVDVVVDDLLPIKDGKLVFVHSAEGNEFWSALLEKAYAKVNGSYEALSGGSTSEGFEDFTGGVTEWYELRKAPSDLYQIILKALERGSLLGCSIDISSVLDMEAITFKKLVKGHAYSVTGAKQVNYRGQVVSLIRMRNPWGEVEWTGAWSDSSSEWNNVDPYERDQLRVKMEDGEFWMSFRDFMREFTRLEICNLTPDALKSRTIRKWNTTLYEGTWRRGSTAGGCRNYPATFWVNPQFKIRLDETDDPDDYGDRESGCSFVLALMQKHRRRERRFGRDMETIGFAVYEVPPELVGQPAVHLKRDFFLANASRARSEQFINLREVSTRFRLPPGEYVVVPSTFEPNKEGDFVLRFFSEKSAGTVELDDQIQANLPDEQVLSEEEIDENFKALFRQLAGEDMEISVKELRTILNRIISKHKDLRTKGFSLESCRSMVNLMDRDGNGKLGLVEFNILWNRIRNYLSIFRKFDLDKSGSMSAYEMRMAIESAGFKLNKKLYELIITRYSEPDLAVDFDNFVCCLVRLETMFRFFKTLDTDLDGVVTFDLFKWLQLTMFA
T1 sequence (P04632 whole entry partner): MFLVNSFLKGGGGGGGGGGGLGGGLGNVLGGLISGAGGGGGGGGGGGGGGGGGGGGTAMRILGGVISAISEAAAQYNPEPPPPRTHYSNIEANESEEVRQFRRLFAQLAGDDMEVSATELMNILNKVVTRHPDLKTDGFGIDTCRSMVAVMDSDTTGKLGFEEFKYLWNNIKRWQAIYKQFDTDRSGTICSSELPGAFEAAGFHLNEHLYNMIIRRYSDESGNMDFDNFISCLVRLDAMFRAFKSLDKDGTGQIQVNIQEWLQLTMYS
T22 sequence (P70343 81-373): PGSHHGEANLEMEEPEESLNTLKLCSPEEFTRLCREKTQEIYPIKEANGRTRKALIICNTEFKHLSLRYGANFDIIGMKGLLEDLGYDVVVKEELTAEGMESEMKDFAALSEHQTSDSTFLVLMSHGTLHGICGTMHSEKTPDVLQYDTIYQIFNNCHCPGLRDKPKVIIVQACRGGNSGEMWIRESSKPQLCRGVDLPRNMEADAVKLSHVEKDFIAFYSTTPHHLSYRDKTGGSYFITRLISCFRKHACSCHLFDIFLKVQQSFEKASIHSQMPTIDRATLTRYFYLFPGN
T8 sequence (P00742 235-488 limits assumed): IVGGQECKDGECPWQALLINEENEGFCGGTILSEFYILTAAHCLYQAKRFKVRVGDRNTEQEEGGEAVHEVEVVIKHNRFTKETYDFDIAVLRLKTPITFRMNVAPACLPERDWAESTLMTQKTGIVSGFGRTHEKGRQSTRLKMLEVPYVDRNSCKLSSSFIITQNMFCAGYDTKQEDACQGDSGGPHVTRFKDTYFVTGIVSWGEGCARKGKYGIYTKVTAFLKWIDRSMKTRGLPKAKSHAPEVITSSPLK
T8 sequence (P00742 41-179 partner limits assumed): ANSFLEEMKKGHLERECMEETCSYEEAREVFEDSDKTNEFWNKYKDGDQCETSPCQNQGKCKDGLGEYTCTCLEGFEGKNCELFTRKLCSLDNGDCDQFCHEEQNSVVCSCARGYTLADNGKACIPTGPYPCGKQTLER
T19 sequence (Q14790 217-479, species assumed): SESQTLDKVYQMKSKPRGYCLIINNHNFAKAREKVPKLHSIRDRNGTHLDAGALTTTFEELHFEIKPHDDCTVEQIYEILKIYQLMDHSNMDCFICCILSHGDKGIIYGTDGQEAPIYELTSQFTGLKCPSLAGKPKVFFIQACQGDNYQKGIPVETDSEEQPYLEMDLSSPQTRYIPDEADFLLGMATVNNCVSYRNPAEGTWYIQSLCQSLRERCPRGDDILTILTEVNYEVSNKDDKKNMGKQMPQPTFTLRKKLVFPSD
T7 sequence (P39900 106-470, species assumed): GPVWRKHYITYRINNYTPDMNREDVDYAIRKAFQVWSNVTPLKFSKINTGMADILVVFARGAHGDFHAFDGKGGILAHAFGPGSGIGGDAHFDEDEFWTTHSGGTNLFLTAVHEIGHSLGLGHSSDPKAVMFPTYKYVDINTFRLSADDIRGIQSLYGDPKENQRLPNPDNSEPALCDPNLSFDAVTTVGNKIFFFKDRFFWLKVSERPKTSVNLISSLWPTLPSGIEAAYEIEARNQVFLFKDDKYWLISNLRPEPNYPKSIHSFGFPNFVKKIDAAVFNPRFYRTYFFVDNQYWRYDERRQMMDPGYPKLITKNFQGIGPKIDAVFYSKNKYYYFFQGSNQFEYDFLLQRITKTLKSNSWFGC
Cathepsin L, sequence (P07711 114-333, species assumed): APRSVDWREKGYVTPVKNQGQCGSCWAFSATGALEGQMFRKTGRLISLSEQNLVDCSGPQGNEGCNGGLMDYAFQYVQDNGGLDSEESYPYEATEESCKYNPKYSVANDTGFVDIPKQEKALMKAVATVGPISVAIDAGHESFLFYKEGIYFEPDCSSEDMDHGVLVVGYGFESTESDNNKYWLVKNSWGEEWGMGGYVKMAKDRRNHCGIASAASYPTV
T13 sequence (Q9NRR2 20-321): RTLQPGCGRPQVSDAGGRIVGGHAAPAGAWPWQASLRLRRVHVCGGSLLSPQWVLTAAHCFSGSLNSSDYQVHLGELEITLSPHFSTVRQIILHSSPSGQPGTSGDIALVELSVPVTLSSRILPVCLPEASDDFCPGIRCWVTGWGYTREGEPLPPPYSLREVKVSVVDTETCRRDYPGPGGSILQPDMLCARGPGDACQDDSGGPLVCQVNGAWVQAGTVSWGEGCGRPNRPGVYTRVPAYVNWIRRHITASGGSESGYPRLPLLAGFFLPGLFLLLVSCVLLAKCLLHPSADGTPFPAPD
MMP 7, sequence (P09237 95-267, species assumed): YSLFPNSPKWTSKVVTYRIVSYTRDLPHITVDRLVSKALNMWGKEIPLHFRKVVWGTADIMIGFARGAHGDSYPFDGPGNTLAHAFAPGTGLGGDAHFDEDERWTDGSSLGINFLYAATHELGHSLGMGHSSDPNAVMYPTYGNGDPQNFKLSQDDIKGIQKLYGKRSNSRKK

IC50 (Calpain 1): 0.098 µM
IC50 (Cathepsin B): 0.00987 µM
IC50 (Cathepsin C): 0.607 µM
IC50 (Cathepsin H): 0.198 µM
IC50 (Cathepsin L): 0.00999 µM
IC50 (Cathepsin S): 0.00939 µM
IC50 (Cathepsin V): 0.0118 µM
IC50 (Papain): 0.000936 µM
Structure (SMILES): CC(C)C[C@H](NC(=O)[C@H]1O[C@@H]1C(=O)O)C(=O)NCCCCN=C(N)N [Compound E64]

Structure (SMILES): CC(=O)N[C@@H](CC(=O)O)C(=O)N[C@@H](CCC(=O)O)C(=O)N[C@H](C(=O)N[C@H](C=O)CC(=O)O)C(C)C [DEVD-CHO]
IC50 (Caspase 7): 0.0011 µM

IC50 (ADAM10): 0.0811 µM
IC50 (MMP 3): 0.0163 µM
IC50 (MMP 7): 0.00438 µM
IC50 (MMP 12): 0.00117 µM
IC50 (MMP 14): 0.00124 µM
IC50 (MMP 13): 0.000535 µM
IC50 (TACE): 0.0091 µM
Structure (SMILES): CNC(=O)[C@H](Cc1c[nH]c2ccccc12)NC(=O)[C@@H](CC(=O)NO)CC(C)C [GM6001]

Structure (SMILES): CCOC(=O)c1ccc(OC(=O)CCCCCN=C(N)N)cc1 [Gabexate mesylate (GM), Gabexate mesylate]
IC50 (Elastase): 1.81 µM
IC50 (FXa): 5.3 µM
IC50 (Kallikrein 5): 8.06 µM
IC50 (Kallikrein 7): 29.3 µM
IC50 (Kallikrein 12): 0.351 µM
IC50 (Kallikrein 13): 17.6 µM
IC50 (Kallikrein 14): 0.969 µM
IC50 (Matriptase 2): 7.56 µM
IC50 (Plasma kallikrein): 0.475 µM
IC50 (Plasmin): 0.936 µM
IC50 (Thrombin a): 3.73 µM
IC50 (Trypsin): 0.0669 µM
IC50 (Tryptase b2): 0.0873 µM
IC50 (Tryptase g1): 0.0506 µM
IC50 (Urokinase): 0.1 µM

Structure (SMILES): CC[C@H](C)[C@H](NC(C)=O)C(=O)N[C@@H](CCC(=O)O)C(=O)N[C@H](C(=O)N[C@H](C=O)CC(=O)O)[C@@H](C)O [IETD-CHO] (Ac-IETD-aldehyde)
IC50 (Caspase 1): 0.0545 µM
IC50 (Caspase 2): 0.626 µM
IC50 (Caspase 4): 2.73 µM
IC50 (Caspase 5): 0.0213 µM
IC50 (Caspase 8): 0.00166 µM
IC50 (Caspase 9): 0.0553 µM
IC50 (Caspase 10): 0.0177 µM
IC50 (Caspase 11): 0.68 µM

IC50 (Kallikrein 1): 26.7 µM
Structure (SMILES): CC(=O)N[C@@H](CC(C)C)C(=O)N[C@@H](CC(C)C)C(=O)N[C@H](C=O)CCCNC(=N)N [Leupeptin, reference compound]

IC50 (Neprilysin): 0.0422 µM
Structure (SMILES): CC(C)C[C@H](NP(=O)(O)O[C@@H]1O[C@@H](C)[C@H](O)[C@@H](O)[C@H]1O)C(=O)N[C@@H](Cc1c[nH]c2ccccc12)C(=O)O [Phosphoramidon]
